Reference: patent US20090105212A1, “NOVEL ADENINE COMPOUND” (priority 2005, published 2009)

biological target: T1, Human TLR7 (Homo sapiens, UniProt Q9NYK1); assay: Human TLR7 reporter assay (NF-kB-SEAP, HEK293 cells); assay type: cell-based; settings: hTLR7/seap-293 cells (HEK293, NF-kB-SEAP reporter), 20 hours incubation, 1 nM-10 μM, absorbance 405 nm; read-out: human TLR7 binding activity (EC50)
T1 construct: expressed in transfected cells; host or cells: HEK293 (hTLR7/seap-293)
T1 sequence (Q9NYK1 27-1049): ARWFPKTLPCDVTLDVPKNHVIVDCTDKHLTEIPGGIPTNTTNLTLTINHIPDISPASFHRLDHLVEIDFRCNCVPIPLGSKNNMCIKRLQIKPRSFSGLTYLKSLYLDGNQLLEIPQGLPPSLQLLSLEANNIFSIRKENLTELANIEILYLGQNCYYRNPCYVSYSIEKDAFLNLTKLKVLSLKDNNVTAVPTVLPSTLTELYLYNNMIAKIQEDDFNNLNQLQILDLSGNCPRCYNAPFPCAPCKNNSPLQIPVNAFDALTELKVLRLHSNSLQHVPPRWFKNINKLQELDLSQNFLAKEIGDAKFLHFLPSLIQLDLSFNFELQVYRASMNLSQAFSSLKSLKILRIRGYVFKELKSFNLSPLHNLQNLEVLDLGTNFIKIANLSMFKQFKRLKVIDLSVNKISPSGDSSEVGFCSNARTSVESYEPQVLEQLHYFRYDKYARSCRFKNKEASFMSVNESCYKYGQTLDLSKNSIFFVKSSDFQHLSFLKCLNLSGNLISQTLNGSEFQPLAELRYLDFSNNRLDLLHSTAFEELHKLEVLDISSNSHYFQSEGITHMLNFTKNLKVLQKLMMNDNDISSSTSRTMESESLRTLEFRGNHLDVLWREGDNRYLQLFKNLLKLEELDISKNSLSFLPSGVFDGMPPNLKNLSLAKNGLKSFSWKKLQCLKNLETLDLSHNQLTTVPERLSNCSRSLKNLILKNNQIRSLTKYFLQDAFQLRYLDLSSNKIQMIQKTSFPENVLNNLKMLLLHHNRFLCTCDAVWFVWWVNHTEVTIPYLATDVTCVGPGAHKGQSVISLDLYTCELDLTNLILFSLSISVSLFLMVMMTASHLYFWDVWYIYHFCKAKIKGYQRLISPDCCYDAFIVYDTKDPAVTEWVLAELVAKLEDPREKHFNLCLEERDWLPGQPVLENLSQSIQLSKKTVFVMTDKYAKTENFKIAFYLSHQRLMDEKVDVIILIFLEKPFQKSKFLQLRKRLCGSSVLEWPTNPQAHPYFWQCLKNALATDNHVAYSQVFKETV
Protocol: Human TLR7 Reporter Assay
Human TLR7 or rat TLR7 plasmid and reporter plasmid (NF-kB-SEAP) stably-induced HEK293 cells were suspended in DMEM media (10% […], 1% NEAA, 10 ug/mL blastocidin S HCl, 100 ug/mL Zeocin), and the suspension was seeded in 90 μl/well on 96 well plate (hTLR7/seap-293:20000 cells/well, rTLR7/seap-293:25000 cells/well).
To the cells seeded on 96 well plate was added in 10 μl/well a test compound wherein DMSO stock solution (2 μl) was hundredfold diluted with medium (200 μl) (final concentration; 1 nM-10 μM, common ratio 3). The mixture was stirred tapping in the side of the plate, and then incubated for 20 hours in CO2 incubator. To the cells stimulated by a test compound was added a substrate for reporter assay (substrate for SEAP, pNPP) by 50 μl/well. 10 minutes after the addition of substrate, a quenching solution (4N NaOH) was added by 50 μl/well, and the enzymatic reaction was quenched. Top seal A was attached on the plate, and absorbance was measured by microplate reader (405 nm).

`CCCCOc1nc(N)c2[nH]c(=O)n(Cc3ccc(OCCCN(C)CC(=O)OC)cc3)c2n1` [Example 4, 2-butoxy-7,8-dihydro-9-[4-{3-[(N-methyl-N-methoxycarbonylmethyl)amino]propoxy}benzyl]-8-oxoadenine] and `CCCCOc1nc(N)c2[nH]c(=O)n(Cc3ccc(CCCN(C)CC(=O)OC)cc3)c2n1` [Example 21, 2-Butoxy-7,8-dihydro-9-{4-[3-(N-methoxycarbonylmethyl-N-methylamino)propyl]benzyl}-8-oxoadenine] are within 1.5-fold of each other in EC50: 7.8 nM for the first, 6.8 nM for the second.

`CCCCOc1nc(N)c2[nH]c(=O)n(Cc3ccc(CN(C)CC(=O)OC)cc3OC)c2n1` [Example 16, 2-Butoxy-7,8-dihydro-9-[2-methoxy-4-(N-methoxycarbonylmethyl-N-methylaminomethyl)benzyl]-8-oxoadenine] and `CCCCOc1nc(N)c2[nH]c(=O)n(Cc3ccc(CN(C)CC(=O)OCCCCN(C)C)cc3OC)c2n1` [Example 23, 2-Butoxy-7,8-dihydro-9-{4-[N-(4-dimethylaminobutoxy-carbonylmethyl)-N-methylaminomethyl]-2-methoxybenzyl}-8-oxoadenine] are within 1.5-fold of each other in EC50: 15.6 nM for the first, 15.7 nM for the second.

`CCCCOc1nc(N)c2[nH]c(=O)n(Cc3ccc(OCCCCN4CCC(C(=O)OCCCCN(C)C)CC4)cc3)c2n1` [Example 3, 2-butoxy-7,8-dihydro-9-(4-[4-{4-[4-(N,N-dimethylamino)butoxycarbonyl]piperidin-1-yl}butoxy]benzyl)-8-oxoadenine] and `CCCCOc1nc(N)c2[nH]c(=O)n(Cc3ccc(OCCCCN4CCC(C(=O)OC)CC4)cc3)c2n1` [Example 1, 2-Butoxy-7,8-dihydro-9-[4-{4-[4-(methoxycarbonyl)-piperidin-1-yl]butoxy}benzyl]-8-oxoadenine] are within 1.5-fold of each other in EC50: 7.8 nM for the first, 5.7 nM for the second.

Compared with `CCCCOc1nc(N)c2[nH]c(=O)n(Cc3ccc(CN(C)CC(=O)OC)cc3)c2n1` [Example 9, 2-Butoxy-7,8-dihydro-9-[4-(N-methoxycarbonylmethyl-N-methylaminomethyl)benzyl]-8-oxoadenine], `CCCCOc1nc(N)c2[nH]c(=O)n(Cc3ccc(CCN(C)CC(=O)OC)cc3)c2n1` [Example 20, 2-Butoxy-7,8-dihydro-9-{4-[2-(N-methoxycarbonylmethyl-N-methylamino)ethyl]benzyl}-8-oxoadenine] is 2.1-fold higher in EC50: 8.8 nM for the first, 18.5 nM for the second. The first is the more potent here.

`CCCCOc1nc(N)c2[nH]c(=O)n(Cc3ccc(OCC4CCN(CC(=O)OCCCCN(C)C)CC4)cc3)c2n1` [Example 7, 2-Butoxy-7,8-dihydro-9-[4-{1-[4-(N,N-dimethylamino)-butoxycarbonylmethyl]piperidin-4-ylmethyloxy}benzyl]-8-oxoadenine] and `CCCCOc1nc(N)c2[nH]c(=O)n(Cc3ccc(OCC4CCN(CC(=O)OC)CC4)cc3)c2n1` [Example 5, 2-butoxy-7,8-dihydro-9-{4-[1-(methoxycarbonylmethyl)piperidin-4-ylmethyloxy]benzyl}-8-oxoadenine] are within 1.5-fold of each other in EC50: 5.1 nM for the first, 3.6 nM for the second.

`CCCCOc1nc(N)c2[nH]c(=O)n(Cc3ccc(OCCCCN(C)CC(=O)OCCCCN(C)C)nc3)c2n1` [Example 28, 2-Butoxy-7,8-dihydro-9-[6-(4-{N′-methyl-N′-[4-(N,N-dimethylamino)butoxycarbonylmethyl]}aminobutoxy)pyridin-3-ylmethyl]-8-oxoadenine] and `CCCCOc1nc(N)c2[nH]c(=O)n(Cc3ccc(OCCCCN(C)CC(=O)OC)nc3)c2n1` [Example 26] are within 1.5-fold of each other in EC50: 2 nM for the first, 2.8 nM for the second.

Compared with `COCCOc1nc(N)c2[nH]c(=O)n(Cc3ccc(CN(C)CC(=O)OC)cc3)c2n1` [Example 12, 7,8-Dihydro-9-[4-(N-methoxycarbonylmethyl-N-methylaminomethyl)benzyl]-2-(2-methoxyethoxy)-8-oxoadenine], `CCCCOc1nc(N)c2[nH]c(=O)n(Cc3ccc(CCN4CCC(C(=O)OC)CC4)cc3)c2n1` [Example 18, 2-Butoxy-7,8-dihydro-9-{4-[2-(4-methoxycarbonyl-piperidin-1-yl)ethyl]benzyl}-8-oxoadenine] is 110-fold lower in EC50: 252 nM for the first, 2.2 nM for the second.

Compound `CCCCOc1nc(N)c2[nH]c(=O)n(Cc3ccc(OCCCCN4CCC(C(=O)OC)CC4)nc3)c2n1` [Example 24, 2-butoxy-7,8-dihydro-9-{6-[4-(4-methoxylcarbonylpiperidin-1-yl)butoxy]pyridin-3-ylmethyl}-8-oxoadenine] has an EC50 of under 1 nM.
